Laboratory results as given in publication PMC7109127 (British Journal of Cancer, 2020).
Where “and” joins values, the source holds several entries; their conditions need not be identical. Equal values may be shown once. Read-outs that look alike come from different tables or passages of the source.

Legend:
[1] = cited from earlier work; for mean AUC0–24 / median tmax: all solid tumours, 1 mg
[2] = background statement; cited from earlier work
[3] = TIVO-1; cited from earlier work
advanced HCC = test: phase 1b/2 study, antineoplastic efficacy (RECIST 1.1, PFS, OS); assay type: in vivo, patients
Protocol: This was a phase 1b/2, open-label, single-arm multicentre clinical trial. Subjects were accrued at Roswell Park Comprehensive Cancer Centre (RPCI) and Case Comprehensive Cancer Centre. The respective institutional review board (IRB) approved the protocol at each site. The study was conducted according to the principles of the Declaration of Helsinki, the International Conference on Harmonisation and the Guidelines for Good Clinical Practice. All patients provided written informed consent. The trial was registered with ClinicalTrials.gov (NCT01835223).
Secondary objectives included determination of safety and the PK/PD of tivozanib in patients with advanced HCC. The primary endpoint was PFS at 24 weeks. PFS and not ORR were selected because at the time of study inception PFS or time to progression were acceptable primary efficacy endpoints in early phase HCC studies in view of very low ORR with anti-VEGFR agents. Patients who remained alive and without evidence of disease progression per RECIST 1.1 for at least 24 weeks after enrolment were considered as PFS responders. Secondary endpoints were AEs by CTCAE v4.0, steady state PK, ORR, OS, change in HBV or HCV viral load, serum α-fetoprotein (AFP), and changes in soluble VEGFR-2 (sVEGFR-2).
Using the 3+3 design, the MTD was the DL with probability of DLT 33% or higher. With three dose levels, between 6 and 18 patients were required to complete the phase 1b portion. In terms of antineoplastic efficacy, the true progression rate of less than p0 = 0.50 was considered unacceptable and evidence of such will deem the treatment not worthy of further study. The null and alternative hypotheses tested were H0: p = p0 vs. H1: p > p0. With this two-stage design, a potential total of 37 patients was required to achieve 80% power to detect a difference of at least 20% with a type I error of 5%. Using a two-stage design, a total of 19 patients were planned to be enrolled initially, including the phase 1b patients treated at the MTD/RP2D. If nine or fewer PFS responses were observed, the therapy would be deemed ineffective and the study would end. Otherwise, an additional 18 patients would be enrolled. If 23 or fewer PFS responses are observed in the total efficacy population, therapy would be deemed ineffective; otherwise, it will be concluded that the therapy is promising. The differences on outcomes between study groups were compared by non-parametric Kruskal–Wallis test and Fisher’s/χ^2 test. OS and PFS were estimated by the Kaplan–Meier method and compared by log-rank test. All tests were two sided and performed at a nominal significance level of 0.05. SAS version 9.4 (SAS Institute, Cary, NC) is used for statistical analyses.

CYP3A4 = conditions: background statement; cited from earlier work
sVEGFR-2 [4] = conditions: by day 27; 1 mg daily cohort; cited from earlier work
SK-HEP-1 cells = conditions: cited from earlier work
[5] = test system: metastatic renal cell carcinoma; conditions: TIVO-1; cited from earlier work
PDGFRβ = test: in vitro inhibition of PDGFRβ phosphorylation
[6] = in vivo
Protocol: The RP2D was defined as the MTD.
The treatment schedule was modified as there was concern on tolerability of longer dosing in patients with underlying cirrhosis. […] Study treatment was continued until disease progression or unacceptable toxicity.
Safety assessments were done at baseline, on cycle 1 days 1 and 15, and on day 1 of each cycle thereafter. Tumour assessments were performed by computed tomography or magnetic resonance imaging at baseline and every 8 weeks thereafter. Confirmatory imaging was performed within 6 weeks in patients with complete response or partial response. AEs were assessed using the National Cancer Institute Common Terminology Criteria for Adverse Events (CTCAE) v4.0. Blood sample collection for pharmacokinetic (PK) and pharmacodynamic (PD) analysis was performed on cycle 1 days 1 and 15 pre-dose as well as 2 and 4 h post dose.

[7] = healthy volunteers; cited from earlier work
sVEGFR-2 [8] = test: phase 1b/2 study, pharmacodynamics: plasma sVEGFR-2 by ELISA; assay type: in vivo, Human; conditions: for sVEGFR-2, median percent decrease from baseline: day 15
Protocol: For sVEGFR-2, plasma EDTA samples (220 μL) were analysed in duplicate using a commercially available enzyme-linked immunosorbent assay (Quantikine® ELISA Human VEGFR-2/KDR immunoassay, R&D Systems® Inc., Minneapolis, MN) that was validated according to the FDA guidance. A Tomtec Quadra 4 (Tomtec Inc., Hamden, CT) liquid handling robot was used to transfer all solutions to the 96-well plate to eliminate time-dependent variability associated with manual pipetting. After the addition of the Stop Solution in the final step, the absorbance of each well was measured at 450 and 540 nm on a Synergy HT plate reader (BioTek Instruments, Winooski, VT). The readings at 540 nm were subtracted from the absorbance readings at 450 nm to correct for any optical imperfections in the 96-well plate. Sample concentrations were back-calculated against calibration curves (80.0–5000 pg/mL) that were generated based on a 4-parameter fit of absorbance vs. nominal concentrations (pg/mL) using the Gen 5 software (BioTek Instruments).

c-kit = conditions: in vitro; read-out: half-maximal inhibitory concentration, c-kit phosphorylation; cited from earlier work
[9] = cited from earlier work
[10] = RP2D 1 mg, efficacy population N = 19
[11] = all solid tumours, 1 mg dose level

COc1cc2nccc(Oc3ccc(NC(=O)Nc4cc(C)on4)c(Cl)c3)c2cc1OC [tivozanib]
mean AUC0–24 ([1]; multiple doses): 856 ng·h/mL
median tmax ([1]; multiple doses): 4.01 h
mean AUC0–24 ([1]; single dose): 131.2 ng·h/mL
median tmax ([1]; single dose): 6.01 h
half-life [1]: 88.8 to 113 h
liver toxicities or tissue accumulation [2]: no associated liver toxicities or tissue accumulation
diarrhoea incidence [3]: 23%
hypertension incidence [3]: 44%
palmar–plantar erythrodysesthesia incidence [3]: 14%
24-week PFS probability (advanced HCC; Kaplan–Meier, N = 19): 58%
1-year OS rate (advanced HCC; N = 19): 40%
2-year OS rate (advanced HCC; N = 19): 30%
overall disease control rate (advanced HCC; RECIST 1.1, N = 19): 63%
PFS responders at 24 weeks (6-month PFS) (advanced HCC; RP2D 1 mg, N = 19): 47.3%
overall response rate (PR, RECIST 1.1) (advanced HCC; RP2D 1 mg, N = 19): 21%
median OS (advanced HCC; [10]): 9 months and 9.0 months
median PFS (advanced HCC; [10]): 24 weeks
interaction with CYP3A4 inhibitors (CYP3A4): no interaction
sVEGFR-2 decrease from baseline (sVEGFR-2 [4]): 28%
tumour growth inhibition (SK-HEP-1 cells; daily oral 0.2 mg/kg for 2 weeks): ~60%
tumour inhibition (SK-HEP-1 cells; daily oral 1 mg/kg): ~90%
overall response rate (ORR) [5]: 33.1%
progression-free survival (PFS) [5]: 11.9 months
activity against PDGFRβ, times higher compared to lenvatinib (PDGFRβ): 197 times
activity against PDGFRβ, times higher compared to sorafenib (PDGFRβ): 46 times
Decreased appetite, grade 3 and 4 ([6]; human): 3.7%
Diarrhoea, grade 3–4 ([6]; human): 0%
Dysphonia, grade 3 and 4 ([6]; human): 0%
Fatigue, grade 3–4 ([6]; human): 26%
Hypertension, grade 3 and 4 ([6]; human): 11%
Increased bilirubin, grade 3 and 4 ([6]; human): 7.4%
Nausea, grade 3 and 4 ([6]; human): 0%
PPEDS (palmar–plantar erythrodysesthesia syndrome), Total ([6]; human): 11%
PPEDS, Total ([6]; human): 3 n
Palmar–plantar erythrodysesthesia, grade 3 and 4 ([6]; human): 3.7%
Stomatitis, grade 3 and 4 ([6]; human): 0%
Vomiting, grade 3 and 4 ([6]; human): 0%
dose reductions for toxicity [6]: six
permanently discontinued from study treatment for toxicity [6]: four
tolerability [6]: well tolerated
difference in total drug exposure with food consumption [7]: did not show a difference
sVEGFR-2, median pre-dose level (sVEGFR-2 [8]; cycle 1 day 1): 8.64 µg/L
sVEGFR-2, median pre-dose level (sVEGFR-2 [8]; cycle 1 day 15): 5.37 µg/L
sVEGFR-2, median percent decrease from baseline (sVEGFR-2 [8]; PFS responders): 32.4%
sVEGFR-2, median percent decrease from baseline (sVEGFR-2 [8]; PR by RECIST 1.1): 30.9%
sVEGFR-2, median percent decrease from baseline (sVEGFR-2 [8]; SD by RECIST 1.1): 40.5%
sVEGFR-2, median percent decrease from baseline (sVEGFR-2 [8]; all patients): 31.1%
sVEGFR-2, median percent decrease from baseline (sVEGFR-2 [8]; not PFS responders): 30.1%
sVEGFR-2, median percent decrease from baseline (sVEGFR-2 [8]; progressive disease (PD) by RECIST 1.1): 27.4%
IC50 (c-kit): 1.63 nM
Dry skin, any grade [9, 11]: 28%
Fatigue, any grade [9, 11]: 55%
Fatigue, grade 3–4 [9, 11]: 6%
Hypertension, any grade [9, 11]: 39%
Hypertension, grade 3–4 [9, 11]: 28%
Palmar–plantar erythrodysesthesia, any grade [9, 11]: 22%
maximum-tolerated dose (MTD) and RP2D ([9]; once daily, 4 weeks on–2 weeks off, advanced refractory solid malignancies): 1.5 mg
